Values joined by “and” are separate entries in the source; they are usually repeats but may differ in a detail not shown here. Equal values may be shown once. Toxic doses and inconclusive results are not listed.

The subject of the test is CD2F1 mice, L1210 leukemia sc, survival T/C. The test can be described thus: NCI In Vivo Anticancer Drug Screen. Data for tumor model L1210 Leukemia (subcutaneous) in CD2F1 (CDF1) mice. The settings on record: endpoint: median survival time, higher = longer survival. Summed up: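 Transplantable tumor-bearing mice were treated with compound; survival or tumor size measured and expressed as treated-group value (T) divided by vehicle-treated control value (C).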

As to `CN(Cc1cnc2nc(N)nc(N)c2n1)c1c(Cl)cc(C(=O)NC(CCC(=O)O)C(=O)O)cc1Cl` (stereo unspecified), the T/C by setting is: (dose: 5.83 mg/kg/injection, schedule: Q#A X Z (oral), vehicle: other) 163 % of control; (dose: 8.1 mg/kg/injection, schedule: Q#A X Z (oral), vehicle: other) 220 % of control; (dose: 8.1 mg/kg/injection, schedule: Q#A X Z (sc), vehicle: other) 655 % of control; (dose: 9.72 mg/kg/injection, schedule: Q#A X Z (oral), vehicle: other) 204 % of control; (dose: 9.72 mg/kg/injection, schedule: Q#A X Z (sc), vehicle: other) 345 % of control; (dose: 13.5 mg/kg/injection, schedule: Q#A X Z (oral), vehicle: other) 230 % of control. Besides, the T/C is 730 % of control (dose: 13.5 mg/kg/injection, schedule: Q#A X Z (sc), vehicle: other); 322 % of control (dose: 16.2 mg/kg/injection, schedule: Q#A X Z (sc), vehicle: other); 190 % of control (dose: 22.5 mg/kg/injection, schedule: Q#A X Z (oral), vehicle: other); 690 % of control (dose: 22.5 mg/kg/injection, schedule: Q#A X Z (sc), vehicle: other); 500 % of control (dose: 25.0 mg/kg/injection, schedule: Q01DX Z (sc), vehicle: other); 186 % of control and 215 % of control (dose: 27.0 mg/kg/injection, schedule: Q01DX Z (oral), vehicle: other). In addition, the T/C (dose: 27.0 mg/kg/injection, schedule: Q01DX Z (sc), vehicle: other) was 331 % of control and 565 % of control and 900 % of control; the T/C (dose: 27.0 mg/kg/injection, schedule: Q#A X Z (sc), vehicle: other) is 786 % of control; the T/C (dose: 28.0 mg/kg/injection, schedule: Q01DX Z (oral), vehicle: other) was 194 % of control; the T/C (dose: 37.5 mg/kg/injection, schedule: Q#A X Z (oral), vehicle: other) was 175 % of control; the T/C (dose: 37.5 mg/kg/injection, schedule: Q#A X Z (sc), vehicle: other) was 565 % of control; the T/C (dose: 45.0 mg/kg/injection, schedule: Q01DX Z (oral), vehicle: other) is 181 % of control and 210 % of control. For the same compound, the T/C is, setting by setting: (dose: 45.0 mg/kg/injection, schedule: Q01DX Z (sc), vehicle: other) 363 % of control and 825 % of control; (dose: 47.0 mg/kg/injection, schedule: Q01DX Z (oral), vehicle: other) 222 % of control; (dose: 47.0 mg/kg/injection, schedule: Q01DX Z (sc), vehicle: other) 816 % of control; (dose: 50.0 mg/kg/injection, schedule: Q01DX Z (sc), vehicle: other) 500 % of control; (dose: 62.5 mg/kg/injection, schedule: Q#A X Z (sc), vehicle: other) 175 % of control; (dose: 75.0 mg/kg/injection, schedule: Q01DX Z (oral), vehicle: other) 159 % of control and 190 % of control. The T/C is 231 % of control and 554 % of control and 800 % of control (dose: 75.0 mg/kg/injection, schedule: Q01DX Z (sc), vehicle: other); 100 % of control (dose: 75.0 mg/kg/injection, schedule: Q03DX Z (oral), vehicle: other); 122 % of control (dose: 75.0 mg/kg/injection, schedule: Q#A X Z (oral), vehicle: other); 188 % of control (dose: 78.0 mg/kg/injection, schedule: Q01DX Z (oral), vehicle: other); 272 % of control (dose: 78.0 mg/kg/injection, schedule: Q01DX Z (sc), vehicle: other); 110 % of control (dose: 108.0 mg/kg/injection, schedule: Q## X Z (oral), vehicle: other). In addition, the T/C was 115 % of control (dose: 108.0 mg/kg/injection, schedule: Q## X Z (sc), vehicle: other); 172 % of control and 200 % of control (dose: 125.0 mg/kg/injection, schedule: Q01DX Z (oral), vehicle: other); 205 % of control (dose: 125.0 mg/kg/injection, schedule: Q01DX Z (sc), vehicle: other); 100 % of control (dose: 125.0 mg/kg/injection, schedule: Q03DX Z (oral), vehicle: other); 513 % of control (dose: 125.0 mg/kg/injection, schedule: Q03DX Z (sc), vehicle: other); 200 % of control (dose: 130.0 mg/kg/injection, schedule: Q01DX Z (oral), vehicle: other). Further, the T/C is 194 % of control (dose: 130.0 mg/kg/injection, schedule: Q01DX Z (sc), vehicle: other); 115 % of control (dose: 180.0 mg/kg/injection, schedule: Q## X Z (oral), vehicle: other); 115 % of control (dose: 180.0 mg/kg/injection, schedule: Q## X Z (sc), vehicle: other); 113 % of control (dose: 208.0 mg/kg/injection, schedule: Q03DX Z (oral), vehicle: other); 272 % of control (dose: 208.0 mg/kg/injection, schedule: Q03DX Z (sc), vehicle: other); 172 % of control (dose: 216.0 mg/kg/injection, schedule: Q01DX Z (oral), vehicle: other). Moreover, the T/C (dose: 216.0 mg/kg/injection, schedule: Q01DX Z (sc), vehicle: other) is 155 % of control; the T/C (dose: 250.0 mg/kg/injection, schedule: Q## X Z (sc), vehicle: other) was 500 % of control; the T/C (dose: 300.0 mg/kg/injection, schedule: Q## X Z (oral), vehicle: other) was 110 % of control; the T/C (dose: 300.0 mg/kg/injection, schedule: Q## X Z (sc), vehicle: other) is 120 % of control; the T/C (dose: 347.0 mg/kg/injection, schedule: Q03DX Z (oral), vehicle: other) was 109 % of control; the T/C (dose: 347.0 mg/kg/injection, schedule: Q03DX Z (sc), vehicle: other) is 195 % of control. For the same compound, the T/C (dose: 360.0 mg/kg/injection, schedule: Q01DX Z (oral), vehicle: other) is 166 % of control; the T/C (dose: 500.0 mg/kg/injection, schedule: Q## X Z (oral), vehicle: other) was 115 % of control; the T/C (dose: 500.0 mg/kg/injection, schedule: Q## X Z (sc), vehicle: other) was 370 % of control and 500 % of control; the T/C (dose: 577.0 mg/kg/injection, schedule: Q03DX Z (oral), vehicle: other) is 150 % of control; the T/C (dose: 577.0 mg/kg/injection, schedule: Q03DX Z (sc), vehicle: other) is 209 % of control; the T/C (dose: 833.0 mg/kg/injection, schedule: Q## X Z (oral), vehicle: other) was 155 % of control. Further, the T/C is, setting by setting: (dose: 833.0 mg/kg/injection, schedule: Q## X Z (sc), vehicle: other) 360 % of control; (dose: 961.0 mg/kg/injection, schedule: Q03DX Z (oral), vehicle: other) 122 % of control; (dose: 961.0 mg/kg/injection, schedule: Q03DX Z (sc), vehicle: other) 172 % of control.
`CC(=O)OC1COC(NC(=O)N(CCCl)N=O)C(OC(C)=O)C1OC(C)=O` (stereo unspecified): the T/C runs as follows: (dose: 0.75 mg/kg/injection, schedule: Q01DX009 (ip), vehicle: saline with Tween-80) 104 % of control; (dose: 1.5 mg/kg/injection, schedule: Q01DX009 (ip), vehicle: saline with Tween-80) 102 % of control; (dose: 3.0 mg/kg/injection, schedule: Q01DX009 (ip), vehicle: saline with Tween-80) 102 % of control and 122 % of control; (dose: 12.0 mg/kg/injection, schedule: Q01DX009 (ip), vehicle: saline with Tween-80) 158 % of control and 297 % of control.
Consider `NC(=O)c1ncn2c(=O)n(CCCl)nnc12`, for which the T/C (dose: 1.56 mg/kg/injection, schedule: Q01DX009 (ip), vehicle: suspension in saline) was 123 % of control; the T/C (dose: 6.25 mg/kg/injection, schedule: Q01DX009 (ip), vehicle: suspension in saline) is 195 % of control; the T/C (dose: 12.5 mg/kg/injection, schedule: Q01DX009 (ip), vehicle: suspension in saline) is 309 % of control; the T/C (dose: 25.0 mg/kg/injection, schedule: Q01DX009 (ip), vehicle: suspension in saline) was 206 % of control; the T/C (dose: 50.0 mg/kg/injection, schedule: Q01DX009 (ip), vehicle: suspension in saline) was 100 % of control.

Source of the values: PubChem BioAssay AID258 (DTP/NCI, 2004).
